Reference: patent US7514068B2, “Biphenyl-pyrazolecarboxamide compounds” (Concert Pharmaceuticals Inc., priority 2005, dated 2009)
Where two headings read alike, the source gives them in different places.

Tests used:
[1] = rat liver microsome assays; cited from earlier work
[2] = RIO-North American trial, cited from earlier work
[3] = RIO-North American Phase III clinical trial, adverse-event associated discontinuations; type: in vivo, human; conditions: 20 mg dose
Excerpt: In reports of these clinical trials Compound 1 was described as having a good safety profile with relatively low increases in serious adverse events across the different dose groups tested. However, it is clearly less well tolerated in higher doses, with the more common side effects including depression, anxiety, and irritability, and in some but not all studies, significant amounts of nausea. Even in a highly motivated Phase III clinical trial population, a considerable number of dose-dependent discontinuations occurred.

CB1 vs. CB2 receptor = conditions: in vitro receptor binding studies; cited from earlier work
animal models = conditions: cited from earlier work
rats = conditions: cited from earlier work
[4] = test system: wide range of other neurological receptors; conditions: in vitro receptor binding studies; cited from earlier work

| Compound | sites of metabolism [1] | first year adverse-event associated discontinuations ([2]; 5 mg dose) [%] | first year adverse-event associated discontinuations ([2]; 20 mg dose) [%] | increase of adverse-event associated discontinuations versus placebo [3] [%] | selectivity for the CB1 vs. CB2 receptor (CB1 vs. CB2 receptor) | duration of action compared with Compound 1 (animal models) | in vivo effects of cannabinoid agonists (hypothermia, ring immobility, increased tail flick latency) (rats) | affinity for a wide range of other neurological receptors [4] |
| --- | --- | --- | --- | --- | --- | --- | --- | --- |
| Cc1c(C(=O)NN2CCCCC2)nn(-c2ccc(Cl)cc2Cl)c1-c1ccc(Cl)cc1 [Compound 1, N-(piperidin-1-yl)-5-(4-chlorophenyl)-1-(2,4-dichlorophenyl)-4-methyl-1H-pyrazole-3-carboxamide] | hydroxylation only on the pyrazole 3-substituent | 9.4 | 12.8 | 77 | – | – | – | – |
| CCc1c(C(=O)NN2CCCCC2)nn(-c2ccc(Cl)cc2Cl)c1-c1ccc(Br)cc1 [Compound 1A, 5-(4-bromophenyl)-1-(2,4-dichlorophenyl)-4-ethyl-N-(1-piperidinyl)-1H-pyrazole-3-carboxamide] | – | – | – | – | highly selective | longer | reverse | little affinity |
